Measurements as given in patent US6730677B2, “Benzofurazan compounds which enhance AMPA receptor activity” (The Regents of the University of California, priority 1997, dated 2004).

How the values were obtained:
AMPA receptors = experiment: Field EPSP amplitude in field CA1 of rat hippocampal slice (in vitro physiological testing); assay type: cell-based; settings: estimated by interpolation or extrapolation
From the text: The field EPSP (excitory post-synaptic potential) recorded in field CA1 after stimulation of CA3 axons is known to be mediated by AMPA receptors, which are present in the synapses (Kessler et al., Brain Res. 560: 337-341 (1991)). Drugs that selectively block the receptor selectively block the field EPSP (Muller et al., Science, supra). […] These effects are mirrored in the field EPSP (see, for example, Staubli et al., Psychobiology, supra; Xiao et al., Hippocampus, supra; Staubli et al., Hippocampus 2:4958 (1992)).
To obtain the data shown in Table I, a bipolar nichrome stimulating electrode was positioned in the dendritic layer (stratum radiatum) of the hippocampal subfield CA1 close to the border of subfield CA3, as described in Example 21. Current pulses (0.1 msec) through the stimulating electrode activate a population of the Schaffer-commissural (SC) fibers, which arise from neurons in the subdivision CA3 and terminate in synapses on the dendrites of CA1 neurons. Activation of these synapses causes them to release the transmitter glutamate. Glutamate binds to the post-synaptic AMPA receptors which then transiently open an associated ion channel and permit a sodium current to enter the post-synaptic cell. This current results in a voltage in the extracellular space (the field EPSP), which is recorded by a high impedance recording electrode positioned in the middle of the stratum radiatum of CA1.
The intensity of the stimulation current was adjusted to produce half-maximal EPSPs (typically about 1.5-2.0 mV). Paired stimulation pulses were given every 40 sec with an interpulse interval of 200 msec, as described further in Example 21.
(§1) Hippocampal slices were maintained in a recording chamber continuously perfused with artificial cerebrospinal fluid (ACSF). During 15-30 minute intervals, the perfusion medium was switched to one containing various concentrations of the test compounds. Responses collected immediately before and at the end of drug perfusion were superimposed in order to calculate the percent increase in EPSP amplitude.
Invention compounds 1-9, as shown in FIG. 3 and Table I below, and reference compound CX516 (1-(quinoxalin-6-ylcarbonyl)piperidine), disclosed in PCT Pubn. No. WO 94/02475, were assayed in the physiological test system described above.
as §1, with “The physiological effects of invention compounds were tested in vitro with” for “Hippocampal”, “slices of rat hippocampus according to the following procedure. Excitatory responses (field EPSPs) were measured in hippocampal slices, which” for “slices”, “During a” for “During”, “interval,” for “intervals,”
To conduct these tests, the hippocampus was removed from anesthetized, 2 month old Sprague-Dawley rats and in vitro slices (400 micrometers thick) were prepared and maintained in an interface chamber at 35° C. using conventional techniques [see, for example, Dunwiddie and Lynch, J. Physiol. 276: 353-367 (1978)]. The chamber was constantly perfused at 0.5 mL/min with ACSF containing (in mM): NaCl 124, KCl 3, KH2PO4 1.25, MgSO42.5, CaCl2 3.4, NaHCO3 26, glucose 10 and L-ascorbate 2. A bipolar nichrome stimulating electrode was positioned in the dendritic layer (stratum radiatum) of the hippocampal subfield CA1 close to the border of subfield CA3.
Current pulses (0.1 msec) through the stimulating electrode activate a population of the Schaffer-commissural (SC) fibers which arise from neurons in the subdivision CA3 and terminate in synapses on the dendrites of CA1 neurons. Activation of these synapses causes them to release the transmitter glutamate. […]

[1] = test system: methamphetamine-induced hyperactivity and/or stereotypic activity; experiment: Methamphetamine/rat model of schizophrenia (hyperactivity and/or stereotypic activity); assay type: in vivo, Sprague-Dawley rats; settings: for MEDS: Minimum Effective Dose that produces a statistically significant improvement in behavior in the animal model of schizophrenia: rats, 2 mg/kg methamphetamine, activity monitored for 90 minutes
Method: The dose recorded is that which reduced the hyperactivity and/or the stereotypic activity induced by acute administration of 2 mg/kg methamphetamine in rats, as described in Example 22.
The dose recorded is that which reduced the hyperactivity and/or the stereotypic activity induced by acute administration of 2 mg/kg methamphetamine in Sprague-Dawley rats aged 2-4 months. Activity was monitored for 90 minutes using two rows of multiple, paired infrared diode-detectors such that the lower row detected locomotion and the upper row detected rearing behavior. Data were collected by and stored in a personal computer for later analysis.

[2] = Eight-arm radial maze task for cognition/memory enhancement; assay type: in vivo
From the text: This task has been described previously (Staubli et al., PNAS 91:777-781 (1994)) and Lynch and Rogers, PCT Pubn. No. WO 94/02475).

[3] = Animal model of depression (Malatynska and Kostowski); assay type: in vivo; settings: for MEDD: Minimum Effective Dose that produces a statistically significant improvement in behavior in an animal model of depression: in vivo; for Potency relative to the reference compound in the animal model of depression: compared with CX516
From the text: J. Pharmacol. 40, 357-364 (1984).

Structure (SMILES)	Amp: concentration of compound that causes a 10% increase in the amplitude of the field EPSP in Field CA1 of rat hippocampal slice (AMPA receptors) [µM]	melting point [°C]	MEDC: Minimum Effective Dose that produces a statistically significant improvement in behavior in the eight-arm radial maze task [2] [mg/kg]	also measured
O=C(c1ccc2nonc2c1)N1CCC(F)CC1 [Compound 4, 1-(Benzofurazan-5-ylcarbonyl)-4-fluoropiperidine]	30			MEDS: Minimum Effective Dose that produces a statistically significant improvement in behavior in the animal model of schizophrenia [1]: 1 mg/kg
O=C(c1ccc2nonc2c1)N1CC=CC1 [Compound 12, 1-(Benzofurazan-5-ylcarbonyl)-3-pyrroline]		117 to 118		
O=C(c1ccc2nonc2c1)N1CC=C(F)CC1 [Compound 6, 1-(Benzofurazan-5-ylcarbonyl)-1,2,3,6-tetrahydro-4-fluoropyridine]	30			
O=C(c1ccc2nonc2c1)N1CC=CCC1 [Compound 3, 1-(Benzofurazan-5-ylcarbonyl)-1,2,3,6-tetrahydropyridine]	100			
O=C(c1ccc2nonc2c1)[SH]1CCNCC1 [Compound 10, 1-(Benzofurazan-5-ylcarbonyl)thiomorpholine]		144 to 146		
O=C(c1ccc2nccnc2c1)N1CCCCC1 [CX516, 1-(quinoxalin-6-ylcarbonyl)piperidine, reference compound]	50		15	MEDS: Minimum Effective Dose that produces a statistically significant improvement in behavior in the animal model of schizophrenia [1]: 10 mg/kg; MEDD: Minimum Effective Dose that produces a statistically significant improvement in behavior in an animal model of depression [3]: 5 mg/kg
O=C(c1ccc2nonc2c1)N1CCCC1 [Compound 11, 1-(Benzofurazan-5-ylcarbonyl)pyrrolidine]		97.8 to 99.3		
O=C(c1ccc2nonc2c1)N1CCCCC1 [Compound 2, 1-(Benzofurazan-5-ylcarbonyl)piperidine]	3	88.5 to 90.5	0.1	Reduction in dose giving an equivalent effect relative to reference compound CX516 ([1]; methamphetamine/rat model): hundred-fold; MEDS: Minimum Effective Dose that produces a statistically significant improvement in behavior in the animal model of schizophrenia [1]: 0.1 mg/kg; Potency relative to the reference compound in the animal model of depression [3]: approximately 500 fold; MEDD: Minimum Effective Dose that produces a statistically significant improvement in behavior in an animal model of depression [3]: 0.01 mg/kg
O=C(c1ccc2nonc2c1)N1CCOCC1 [Compound 7, 4-(Benzofurazan-5-ylcarbonyl)morpholine]	3		0.1	
CC1CCN(C(=O)c2ccc3nonc3c2)CC1 [Compound 13, 1-(Benzofurazan-5-ylcarbonyl)-4-methylpiperidine]		86 to 87		
O=C(c1ccc2nonc2c1)N1CCC(O)CC1 [Compound 9, 1-(Benzofurazan-5-ylcarbonyl)-4-hydroxypiperidine]	20	132 to 136	0.1	Potency relative to the reference compound in the animal model of depression [3]: approximately 500 fold; MEDD: Minimum Effective Dose that produces a statistically significant improvement in behavior in an animal model of depression [3]: 0.01 mg/kg
O=C(c1ccc2nonc2c1)N1CCC(F)(F)CC1 [Compound 5, 1-(Benzofurazan-5-ylcarbonyl)-4,4-difluoropiperidine]	50			MEDS: Minimum Effective Dose that produces a statistically significant improvement in behavior in the animal model of schizophrenia [1]: 1 mg/kg
N#CC1CCN(C(=O)c2ccc3nonc3c2)CC1 [Compound 8, 1-(Benzofurazan-5-ylcarbonyl)-4-cyanopiperidine]	1	104 to 107	0.1	
O=C(c1ccc2nonc2c1)N1CCCCCC1 [Compound 14, 1-(Benzofurazan-5-ylcarbonyl)hexamethyleneimine]		86 to 87		
O=C(c1ccc2nsnc2c1)N1CCCCC1 [Compound 1, 1-(Benzo-2,1,3-thiadiazole-5-ylcarbonyl)piperidine]	<100			
